Measured values as given in ChEMBL document CHEMBL5625209, “Rational design and optimization of acylthioureas as novel potent influenza virus non-nucleoside polymerase inhibitors” (Eur J Med Chem, 2023).
Calls of active or inactive are those of the source. No cut-off for these calls is given here.

Key:
Influenza A virus = assay: Antiviral activity against Influenza A virus H1N1 (A/Puerto Rico/8/34) infected in MDCK cells assessed as reduction in virus-induced cytopathic effect incubated for 48 hrs by CCK8 assay; assay type: functional, organism-based
[1] = Cytotoxicity against MDCK cells by CCK-8 assay; assay type: toxicity, cell-based, Canis lupus familiaris; details: dog
[2] = Selectivity index, ratio of CC50 for MDCK cells to EC50 for antiviral activity against Influenza A virus H1N1 (A/Puerto Rico/8/34) infected in MDCK cells; assay type: toxicity, cell-based; details: dog, read-out: Ratio CC50/EC50
Influenza B virus [3] = assay: Antiviral activity against influenza B virus B/Yamagata/16/88 infected in MDCK cells; assay type: functional, organism-based; details: B/Yamagata/16/88, MDCK
Influenza B virus [4] = assay: Antiviral activity against influenza B virus Victoria/2/87 infected in MDCK cells; assay type: functional, organism-based; details: Victoria/2/87, MDCK
[5] = Clearance in Sprague-Dawley rat at 3 mg/kg, iv measured up to 24 hrs by LC-MS analysis; assay type: ADME, organism-based; details: in vivo
[6] = Tmax in Sprague-Dawley rat at 3 mg/kg, iv measured up to 24 hrs by LC-MS analysis; assay type: ADME, organism-based; details: in vivo
[7] = AUC(0 to infinity) in Sprague-Dawley rat at 3 mg/kg, iv measured up to 24 hrs by LC-MS analysis; assay type: ADME, organism-based; details: in vivo
[8] = Oral bioavailability in Sprague-Dawley rat at 10 mg/kg measured up to 24 hrs by LC-MS analysis; assay type: ADME, organism-based; details: in vivo
[9] = AUC(0 to t) in Sprague-Dawley rat at 3 mg/kg, iv measured up to 24 hrs by LC-MS analysis; assay type: ADME, organism-based; details: in vivo
[10] = Tmax in Sprague-Dawley rat at 10 mg/kg, po measured up to 24 hrs by LC-MS analysis; assay type: ADME, organism-based; details: in vivo
[11] = AUC(0 to t) in Sprague-Dawley rat at 10 mg/kg, po measured up to 24 hrs by LC-MS analysis; assay type: ADME, organism-based; details: in vivo
[12] = Cmax in Sprague-Dawley rat at 3 mg/kg, iv measured up to 24 hrs by LC-MS analysis; assay type: ADME, organism-based; details: in vivo
[13] = Cmax in Sprague-Dawley rat at 10 mg/kg, po measured up to 24 hrs by LC-MS analysis; assay type: ADME, organism-based; details: in vivo
[14] = Half life in Sprague-Dawley rat at 3 mg/kg, iv measured up to 24 hrs by LC-MS analysis; assay type: ADME, organism-based; details: in vivo
[15] = AUC(0 to infinity) in Sprague-Dawley rat at 10 mg/kg, po measured up to 24 hrs by LC-MS analysis; assay type: ADME, organism-based; details: in vivo
[16] = Half life in Sprague-Dawley rat at 10 mg/kg, po measured up to 24 hrs by LC-MS analysis; assay type: ADME, organism-based; details: in vivo

Structure (SMILES) | CC50 [1] [µM] | EC50 (Influenza A virus) [nM] | selectivity ratio [2] | other results
CC(=O)Nc1ccc(NC(=S)NC(=O)c2ccc(Cl)cc2)cc1 | – | – | – | Activity (Influenza A virus): inactive
CC(C)(C)c1ccc(C(=O)NC(=S)Nc2ccc(-n3cncn3)cc2)cc1 | 54 | 700 | 77.1 | –
CC(C)(C)c1ccc(C(=O)NC(=S)Nn2cnnc2)cc1 | 65.9 | 880 | 74.9 | –
COc1ccc(C(=O)Nc2ccc(NC(=S)NC(=O)c3ccc(C(C)(C)C)cc3)cc2)cc1 | 72.2 | 3 | 24100 | EC50 (Influenza B virus [3]): 300 nM; EC50 (Influenza B virus [4]): 0.4 µM
CC(=O)Nc1ccc(NC(=S)NC(=O)c2ccccc2Cl)cc1 | – | – | – | Activity (Influenza A virus): inactive
CC(=O)Nc1ccc(NC(=S)NC(=O)c2cc3ccccc3s2)cc1 | 90.2 | 270 | 334 | –
CC(C)(C)c1ccc(C(=O)NC(=S)Nc2ccc(N)cc2)cc1 | 100 | 24 | 4170 | EC50 (Influenza B virus [3]): 1900 nM; EC50 (Influenza B virus [4]): 4.9 µM
CCCCc1ccc(C(=O)Nc2ccc(NC(=S)NC(=O)c3ccc(C(C)(C)C)cc3)cc2)cc1 | > 100 | 8 | > 12500 | –
CC(=O)Nc1ccc(NC(=S)NC(=O)c2cccs2)cc1 | 52.2 | 2440 | 21.4 | –
CCc1ccc(C(=O)Nc2ccc(NC(=S)NC(=O)c3ccc(C(C)(C)C)cc3)cc2)cc1 | > 100 | 1 | > 100000 | –
COc1ccccc1NC(=S)NC(=O)c1ccc(C(C)(C)C)cc1 | > 100 | 110 | > 909 | –
CC(C)(C)c1ccc(C(=O)NC(=S)Nc2ccc(NC(=O)c3ccc(Cl)cc3)cc2)cc1 | > 100 | 3 | > 33300 | EC50 (Influenza B virus [3]): 300 nM; EC50 (Influenza B virus [4]): 0.9 µM
CC(C)(C)c1ccc(C(=O)NC(=S)Nc2ccc(NC(=O)c3ccc(F)cc3)cc2)cc1 | > 100 | 27 | > 3700 | –
CC(C)(C)c1ccc(C(=O)NC(=S)Nc2ccccc2Cl)cc1 | 48 | 36 | 1330 | –
CC(C)(C)c1ccc(C(=O)NC(=S)Nc2cc(Br)cc(Br)c2)cc1 | 70.9 | 640 | 111 | –
CC(C)(C)c1ccc(C(=O)NC(=S)Nc2ccc(C(F)(F)F)cc2C(F)(F)F)cc1 | 74.3 | 450 | 165 | –
CC(C)(C)c1ccc(C(=O)NC(=S)Nc2ccc(F)cc2F)cc1 | 95.7 | 720 | 133 | –
CC(C)(C)c1ccc(C(=O)NC(=S)Nc2cccc(F)c2)cc1 | 50.5 | 91 | 555 | –
CC(C)(C)c1ccc(C(=O)NC(=S)Nc2c(Br)cccc2Br)cc1 | 70.9 | 170 | 417 | –
COc1ccc(C(=O)NC(=S)Nc2ccc(NC(C)=O)cc2)cc1 | – | – | – | Activity (Influenza A virus): inactive
CC(C)(C)c1ccc(C(=O)NC(=S)Nc2ccc(NC(=O)c3ccccc3)cc2)cc1 | 77.2 | 4 | 19300 | EC50 (Influenza B virus [3]): 700 nM; EC50 (Influenza B virus [4]): 0.6 µM
Cc1ncn(-c2ccc(NC(=S)NC(=O)c3ccc(C(C)(C)C)cc3)cc2)n1 | 52.7 | 16900 | 3.1 | –
CC(=O)Nc1ccc(NC(=S)NC(=O)c2ccc(C(C)C)cc2)cc1 | 46.9 | 11200 | 4.2 | –
CCCc1ccc(C(=O)Nc2ccc(NC(=S)NC(=O)c3ccc(C(C)(C)C)cc3)cc2)cc1 | > 100 | 1 | > 100000 | –
CC(C)(C)c1ccc(C(=O)NC(=S)Nc2ccccc2F)cc1 | > 100 | 45 | > 2220 | –

Structure (SMILES) | CC50 [1] [µM] | EC50 (Influenza A virus) [nM] | selectivity ratio [2] | other results
CC(C)(C)c1ccc(C(=O)NC(=S)Nc2ccc(NC(=O)c3ccc(Br)cc3)cc2)cc1 | > 100 | 8 | > 12500 | –
CC(C)(C)c1ccc(C(=O)N2C(=O)CN(c3ccccc3F)C2=S)cc1 | 25.4 | 3600 | 7.1 | –
CC(=O)N[C@H]1[C@H]([C@H](O)[C@H](O)CO)OC(C(=O)O)=C[C@@H]1N=C(N)N [ZANAMIVIR] | > 100 | – | > 1540 | –
Cc1ccc(NC(=S)NC(=O)c2ccc(C(C)(C)C)cc2)c(Br)c1 | 41.1 | 32 | 1280 | EC50 (Influenza B virus [3]): 3200 nM; EC50 (Influenza B virus [4]): 6.2 µM
Cc1ccc(C(=O)Nc2ccc(NC(=S)NC(=O)c3ccc(C(C)(C)C)cc3)cc2)cc1 | > 100 | 27 | > 3700 | –
CC(=O)Nc1ccc(NC(=S)NC(=O)c2ccccc2)cc1 | – | – | – | Activity (Influenza A virus): inactive
CCCCCc1ccc(C(=O)Nc2ccc(NC(=S)NC(=O)c3ccc(C(C)(C)C)cc3)cc2)cc1 | 77.2 | 10 | 7720 | –
CC(C)(C)c1ccc(C(=O)NC(=S)Nc2ccc(O)cc2)cc1 | 77.7 | 20 | 3880 | clearance [5]: 46.4 mL/min/kg; Tmax [6]: 4.8 min; AUC(0-inf) ([7]; Sprague-Dawley): 1100 ng·h/mL; bioavailability [8]: 1.21%; AUC(0-t) at 24 h [9]: 1100 ng·h/mL; Tmax [10]: 1.58 h; AUC(0-t) at 24 h [11]: 44.3 ng·h/mL; Cmax [12]: 2520 ng/mL; EC50 (Influenza B virus [3]): 4000 nM; Cmax [13]: 12.8 ng/mL; half-life [14]: 30.6 min; EC50 (Influenza B virus [4]): 5.2 µM
CC(C)(C)c1ccc(C(=O)NC(=O)Nc2ccccc2F)cc1 | 97.9 | 150 | > 667 | –
CCC(=O)Nc1ccc(NC(=S)NC(=O)c2ccc(C(C)(C)C)cc2)cc1 | 86.9 | 16 | 5430 | Tmax [6]: 4.8 min; AUC ([7]; iv, 3 mg/kg, 24 h): 1236 ng·h/mL; bioavailability [8]: 0.83%; AUC(0-t) at 24 h [9]: 1240 ng·h/mL; Tmax [10]: 0.42 h; AUC(0-t) at 24 h [11]: 34 ng·h/mL; Cmax [12]: 3650 ng/mL; EC50 (Influenza B virus [3]): 2500 nM; AUC(0-inf) [15]: 36 ng·h/mL; Cmax [13]: 13 ng/mL; half-life [14]: 51 min; EC50 (Influenza B virus [4]): 3.1 µM; half-life [16]: 113 min
CC(C)(C)c1ccc(C(=O)NC(=S)Nc2c(Cl)cc(Cl)cc2Cl)cc1 | 80.2 | 480 | 167 | –
O=C(NC(=S)Nc1ccccc1F)c1cc2ccccc2s1 | > 100 | 10000 | > 10 | –
COc1cccc(C(=O)Nc2ccc(NC(=S)NC(=O)c3ccc(C(C)(C)C)cc3)cc2)c1 | 72.2 | 23 | 3140 | –
Cc1ccc(NC(=S)NC(=O)c2ccc(C(C)(C)C)cc2)c(C)c1 | 97.9 | 44 | 2220 | –
CC(=O)Nc1ccc(NC(=S)NC(=O)c2ccc(C(C)(C)C)cc2)cc1 | 50 | 250 | 200 | –
CC(C)(C)c1ccc(C(=O)NC(=S)Nc2ccc(F)cc2)cc1 | > 100 | 610 | > 164 | –
COc1ccccc1C(=O)Nc1ccc(NC(=S)NC(=O)c2ccc(C(C)(C)C)cc2)cc1 | 72.2 | 27 | 2670 | –
CC(C)(C)c1ccc(C(=O)NC(=S)Nc2ccc3ccccc3n2)cc1 | 91.7 | 830 | 110 | –
COc1cccc(C(=O)NC(=S)Nc2ccc(NC(C)=O)cc2)c1 | – | – | – | Activity (Influenza A virus): inactive
CC(C)(C)c1ccc(C(=O)NC(=S)Nc2ccccc2Br)cc1 | 85.1 | 32 | 2660 | –
Cc1ccccc1NC(=S)NC(=O)c1ccc(C(C)(C)C)cc1 | > 100 | 38 | > 2630 | –
CC(C)(C)c1ccc(C(=O)NC(=S)Nc2c(Br)cc(Br)cc2Br)cc1 | 60.7 | 360 | 169 | –
CC(C)(C)C(=O)Nc1ccc(NC(=S)NC(=O)c2ccc(C(C)(C)C)cc2)cc1 | 81 | 15 | 5400 | –
CC(C)(C)c1ccc(C(=O)NC(=S)Nc2ccccn2)cc1 | > 100 | 319 | > 314 | –
CC(=O)Nc1ccc(NC(=S)NC(=O)c2ccc(N(C)C)cc2)cc1 | – | – | – | Activity (Influenza A virus): inactive
